Patent publication US11873287B2, “Piperidine-2,6-dione derivatives and ulcerative colitis treating” (TIANJIN HEMAY PHARMACEUTICAL SCI-TECH CO., LTD, priority 2016, dated 2024)
Values joined by “and” are separate entries in the source; they are usually repeats but may differ in a detail not shown here. Equal values may be shown once.

Test system: ICR mice
Assay: Acute toxicity experiment of single oral administration in mice
Format: in vivo
Settings: 1000 mg/Kg single oral dose
Experimental: The mice were fasted one day before the experiment. On the day of the experiment, 6 mice (ICR mice, body weight of 19-21 g, three females and three males) were selected in each experiment group. First of all, one female and one male were selected to orally give 1000 mg/Kg, and observed for 5-10 minutes. If there were no obvious side effects, the remaining 4 animals were orally given the same dose, and observed for 10-15 minutes. If no animal died, the animals were placed in a box to balancedly feed for 7 days. The state was observed and the body weight was recorded daily.
Observation Indexes within 0-15 Minutes After Administration
Activity: restlessness, hyperactivity
Nervous system response: tremor, spasm, convulsion, ataxia, posture abnormality, etc.
Autonomic nerve: exophthalmos, salivation, tears, urination (hematuria), diarrhea, piloerection, breathing, etc.
Observation Indexes Over 7 Days
State of Animal: lethargy, hyperactivity, excitement, hair loss, diarrhea, abnormal behavior, death, etc.

| Structure (SMILES) | Summary of toxic response of tested animals in 7 Days (Female) | Summary of toxic response of tested animals in 7 Days (Male) | Daily Body Weight of Tested Female Mice (Mean ± SD) (Day 1) [g] | Daily Body Weight of Tested Male Mice (Mean ± SD) (Day 1) [g] | Daily Body Weight of Tested Female Mice (Mean ± SD) (Day 2) [g] | Daily Body Weight of Tested Male Mice (Mean ± SD) (Day 2) [g] | Daily Body Weight of Tested Female Mice (Mean ± SD) (Day 3) [g] | Daily Body Weight of Tested Male Mice (Mean ± SD) (Day 3) [g] | Daily Body Weight of Tested Female Mice (Mean ± SD) (Day 4) [g] | Daily Body Weight of Tested Male Mice (Mean ± SD) (Day 4) [g] | Daily Body Weight of Tested Female Mice (Mean ± SD) (Day 5) [g] | Daily Body Weight of Tested Male Mice (Mean ± SD) (Day 5) [g] | Daily Body Weight of Tested Female Mice (Mean ± SD) (Day 6) [g] | Daily Body Weight of Tested Male Mice (Mean ± SD) (Day 6) [g] | Daily Body Weight of Tested Female Mice (Mean ± SD) (Day 7) [g] | Daily Body Weight of Tested Male Mice (Mean ± SD) (Day 7) [g] | also measured |
| --- | --- | --- | --- | --- | --- | --- | --- | --- | --- | --- | --- | --- | --- | --- | --- | --- | --- |
| COCCN1C(=O)CCC(N2C(=O)c3cccc(N(C)C)c3C2=O)C1=O (stereo not shown) [Example 3, 4-dimethylamino-2-(1-(2-methoxyethyl)-2,6-dioxopiperidin-3-yl)isoindolin-1,3-dione] | Abnormality was not observed in 7 days of the test | Abnormality was not observed in 7 days of the test | – | – | – | – | – | – | – | – | – | – | – | – | – | – | Daily Body Weight of Tested Female Mice (Mean ± SD) (Day 1, 1000 mg/kg): 18.3 ± 0.4 g and 18.8 ± 0.4 g; Daily Body Weight of Tested Male Mice (Mean ± SD) (Day 1, 1000 mg/kg): 18.8 ± 0.7 g and 18.0 ± 0.2 g; Daily Body Weight of Tested Female Mice (Mean ± SD) (Day 2, 1000 mg/kg): 21.7 ± 0.2 g and 22.1 ± 1.2 g; Daily Body Weight of Tested Male Mice (Mean ± SD) (Day 2, 1000 mg/kg): 23.3 ± 0.1 g and 22.9 ± 0.3 g; Daily Body Weight of Tested Female Mice (Mean ± SD) (Day 3, 1000 mg/kg): 22.3 ± 0.2 g and 22.7 ± 0.8 g; Daily Body Weight of Tested Male Mice (Mean ± SD) (Day 3, 1000 mg/kg): 24.3 ± 0.1 g and 24.3 ± 0.9 g; Daily Body Weight of Tested Female Mice (Mean ± SD) (Day 4, 1000 mg/kg): 22.6 ± 0.8 g and 23.0 ± 1.4 g; Daily Body Weight of Tested Male Mice (Mean ± SD) (Day 4, 1000 mg/kg): 25.6 ± 0.7 g and 25.2 ± 1.1 g; Daily Body Weight of Tested Female Mice (Mean ± SD) (Day 5, 1000 mg/kg): 23.0 ± 1.4 g and 23.7 ± 1.9 g; Daily Body Weight of Tested Male Mice (Mean ± SD) (Day 5, 1000 mg/kg): 26.9 ± 0.8 g and 27.0 ± 1.3 g; Daily Body Weight of Tested Female Mice (Mean ± SD) (Day 6, 1000 mg/kg): 22.6 ± 1.3 g and 24.1 ± 1.2 g; Daily Body Weight of Tested Male Mice (Mean ± SD) (Day 6, 1000 mg/kg): 27.9 ± 0.9 g and 28.2 ± 1.9 g; Daily Body Weight of Tested Female Mice (Mean ± SD) (Day 7, 1000 mg/kg): 22.7 ± 0.4 g and 24.4 ± 1.8 g; Daily Body Weight of Tested Male Mice (Mean ± SD) (Day 7, 1000 mg/kg): 28.6 ± 0.4 g and 28.5 ± 2.7 g |
| COCCN1C(=O)CCC(N2C(=O)c3cccc(NC(C)=O)c3C2=O)C1=O (stereo not shown) [Example 1, 4-acetylamino-2-(1-(2-methoxyethyl)-2,6-dioxopiperidin-3-yl)isoindolin-1,3-dione] | – | – | 18.5 ± 0.1 | 20.1 ± 1.4 | 22.8 ± 0.3 | 23.8 ± 1.4 | 23.2 ± 0.7 | 24.9 ± 1.0 | 24.0 ± 0.2 | 26.3 ± 1.2 | 25.3 ± 1.6 | 27.7 ± 1.3 | 25.7 ± 1.6 | 29.2 ± 1.4 | 27.1 ± 1.1 | 29.4 ± 1.4 | – |
| CSCCN1C(=O)CCC(N2C(=O)c3cccc(N)c3C2=O)C1=O (stereo not shown) [Example 11, 4-amino-2-(1-(2-methylthioethyl)-2,6-dioxopiperidin-3-yl)isoindolin-1,3-dione] | Decrease of activity was observed in one animal after | Abnormality was not observed in 7 days of the test | 18.1 ± 0.2 | 19.5 ± 0.6 | 21.7 ± 0.2 | 23.7 ± 0.8 | 22.4 ± 0.1 | 25.4 ± 0.4 | 22.4 ± 0.1 | 25.4 ± 0.4 | 23.5 ± 0.4 | 27.0 ± 0.5 | 23.2 ± 0.8 | 29.0 ± 0.7 | 23.2 ± 0.9 | 29.8 ± 1.0 | – |
